The text below walks through data of paper PMC10392676, “Structural basis of anti-SARS-CoV-2 activity of HCQ: specific binding to N protein to disrupt its interaction with nucleic acids and LLPS” (QRB Discovery, 2021).

Experiment [1] addresses NTD of SARS-CoV-2 nucleocapsid (N) protein (Severe acute respiratory syndrome coronavirus 2, UniProt P0DTC9). Kind of experiment: 1H-15N HSQC NMR titration, […] MHz, one-site fit of chemical shift differences, average of […] residues. The class given is binding.
Experiment [2] has as its target CTD of SARS-CoV-2 nucleocapsid (N) protein (Severe acute respiratory syndrome coronavirus 2, UniProt P0DTC9). Described as above. The format is binding.

Take `CCN(CCO)CCCC(C)Nc1ccnc2cc(Cl)ccc12` (centres unmarked) [Hydroxychloroquine]: the dissociation constant Kd (commonly the constant that tells how readily two partners part at equilibrium) stood at 112 ± 32.2 µM in experiment [1] and 52.1 ± 17.6 µM in experiment [2].
